# Assay results reported in ChEMBL document CHEMBL4483862, “Open-source discovery of chemical leads for next-generation chemoprotective antimalarials” (2018).
# System: Plasmodium berghei
# Experiment: Luciferase/luciferin-expressing antifolate-resistant parasites were used to infect a culture of HepG2 cells that were pre-incubated with compounds. Infected hepatocytes emit light due to the luciferase reaction. Assay results are presented as the percent inhibition of light emission compared to control. […]
# Type: functional
# Details: sporozoite; for IC90: read-out: LUCIFERASE INFECTION ASSAY - IC90
# [1] = read-out: LUCIFERASE INFECTION ASSAY - IC50
Structure (SMILES),IC50 [1],IC90,further results
O=C(Nc1ccccc1C(=O)OCN1C(=O)c2ccccc2C1=O)c1ccc([N+](=O)[O-])cc1Cl,> 10 µM,> 10 µM,–
Cc1onc(-c2c(Cl)cccc2Cl)c1NC(=O)Nc1ccc(Cl)cc1,0.334 µM,2.89 µM,–
Cc1occc1C(=O)NNC(=O)c1csc(-c2ccc(C(C)C)cc2)n1,–,> 10 µM,"IC50 (PBLUC_HILL_SLOPE 2.06, PBLUC_R_SQUARED 0.34, read-out: LUCIFERASE INFECTION ASSAY - IC50): 8.1 µM"
O=C(NNC(=O)c1cc2cc(Cl)ccc2[nH]1)c1ccc(S(=O)(=O)N2CCCC2)cc1,–,9.83 µM,"IC50 (HEPG2TOX_HILL_SLOPE 3.29, HEPG2TOX_R_SQUARED 0.977, PBLUC_HILL_SLOPE 10.3, 16.0, PBLUC_R_SQUARED 0.127, 0.622, read-out: LUCIFERASE INFECTION ASSAY - IC50): 8.54 µM"
CCN1C/C(=C/c2ccccc2OC(F)F)C(=O)/C(=C/c2ccccc2OC(F)F)C1,–,> 10 µM,"IC50 (HEPG2TOX_HILL_SLOPE 12.5, HEPG2TOX_R_SQUARED 0.688, PBLUC_HILL_SLOPE 10.4, PBLUC_R_SQUARED 0.447, read-out: LUCIFERASE INFECTION ASSAY - IC50): 9.35 µM"
C(=N\c1nc2ccccc2nc1N1CCOCC1)/N1CCN(C(c2ccccc2)c2ccccc2)CC1,> 10 µM,> 10 µM,–
Nc1nc(CN2CCN(Cc3cccc4cccnc34)CC2)nc2ccccc12,> 10 µM,> 10 µM,–
Cc1ccc2c(CC(=O)Nc3sccc3C(N)=O)coc2c1,> 10 µM,> 10 µM,–
Clc1cccc(Sc2ccc(-c3ccccn3)s2)c1,> 10.9 µM,> 10.9 µM,–
COC(=O)c1ccc(-n2c(C)cc(-c3csc(NC(=O)/C=C/c4ccccc4[N+](=O)[O-])n3)c2C)cc1,–,> 10 µM,"IC50 (FFLUC_HILL_SLOPE 15.6, FFLUC_R_SQUARED 0.621, read-out: LUCIFERASE INFECTION ASSAY - IC50): > 10 µM"
CCOC(=O)c1sc2nc(C)nc(N3CC=C(c4c[nH]c5ncccc45)CC3)c2c1C,> 10 µM,> 10 µM,–
O=C1/C(=C\c2cccnc2)SC(=S)N1Cc1ccncc1,–,> 10.5 µM,"IC50 (FFLUC_HILL_SLOPE 1.57, FFLUC_R_SQUARED 0.87, HEPG2TOX_HILL_SLOPE 6.45, HEPG2TOX_R_SQUARED 0.698, PBLUC_HILL_SLOPE 14.6, PBLUC_R_SQUARED 0.23, read-out: LUCIFERASE INFECTION ASSAY - IC50): 10.5 µM"
COc1ccc(-c2cnc3cnc(-c4cccc(C(=O)NCCO)c4)cn23)cn1,–,> 8.47 µM,"IC50 (PBLUC_HILL_SLOPE 11.3, PBLUC_R_SQUARED 0.241, read-out: LUCIFERASE INFECTION ASSAY - IC50): 8.2 µM"
Cc1ccc(C(=O)Nc2nc(C(N)Cc3ccccc3)cs2)cc1 (configuration not stated),> 9.78 µM,> 9.78 µM,–
CCNC(=O)C1(C)CCCN1C(=O)c1ccc(OC)cc1 (configuration not stated),> 11.4 µM,> 11.4 µM,–
COc1cc(OC)cc(-c2cn3c(-c4ccc5ncccc5c4)cnc3cn2)c1,–,6.15 µM,"IC50 (HEPG2TOX_HILL_SLOPE 2.4, HEPG2TOX_R_SQUARED 0.938, PBLUC_HILL_SLOPE 4.1, PBLUC_R_SQUARED 0.34, read-out: LUCIFERASE INFECTION ASSAY - IC50): 3.6 µM"
CN(C)CCNC(=O)c1cccc(-c2cnc3ccc(-c4cccc(F)c4)nn23)c1,–,9.29 µM,"IC50 (PBLUC_HILL_SLOPE 5.28, PBLUC_R_SQUARED 0.0552, read-out: LUCIFERASE INFECTION ASSAY - IC50): 6.13 µM"
CC1CCc2ccccc2N1CC(=O)c1cccn1C (configuration not stated),–,> 10 µM,"IC50 (HEPG2TOX_HILL_SLOPE 5.07, HEPG2TOX_R_SQUARED 0.0101, read-out: LUCIFERASE INFECTION ASSAY - IC50): > 10 µM"
NC(=NNC(=S)Nc1ccc(Cl)cc1)c1ccccn1,–,> 10.8 µM,"IC50 (FFLUC_HILL_SLOPE 4.43, FFLUC_R_SQUARED 0.823, PBLUC_HILL_SLOPE 0.754, PBLUC_R_SQUARED 0.703, read-out: LUCIFERASE INFECTION ASSAY - IC50): 1.71 µM"
COc1cc(-c2nccc3n[nH]c(-c4cccc(OC(F)(F)F)c4)c23)cc(OC)c1OC,> 10 µM,> 10 µM,–
CC(C)(CSc1ccc(F)cc1)NS(=O)(=O)c1ccc(Cl)cc1,–,> 10 µM,"IC50 (FFLUC_HILL_SLOPE 2.37, FFLUC_R_SQUARED 0.607, HEPG2TOX_HILL_SLOPE 7.41, HEPG2TOX_R_SQUARED 0.381, PBLUC_HILL_SLOPE 2.26, 0.933, PBLUC_R_SQUARED 0.368, 0.781, read-out: LUCIFERASE INFECTION ASSAY - IC50): 4.38 µM"

Structure (SMILES),IC50 [1],IC90,further results
CN(C)c1nc(N)nc(/C(C#N)=C/c2ccc(N(c3ccccc3)c3ccccc3)cc2)n1,–,> 10 µM,"IC50 (PBLUC_HILL_SLOPE 2.12, PBLUC_R_SQUARED 0.0159, read-out: LUCIFERASE INFECTION ASSAY - IC50): 7.93 µM"
CCOC(=O)/C(C)=N/Nc1ccc(OC(F)(F)F)cc1,–,> 11.4 µM,"IC50 (FFLUC_HILL_SLOPE 15.6, FFLUC_R_SQUARED 0.429, HEPG2TOX_HILL_SLOPE 8.88, HEPG2TOX_R_SQUARED 0.352, PBLUC_HILL_SLOPE 1.63, PBLUC_R_SQUARED 0.496, read-out: LUCIFERASE INFECTION ASSAY - IC50): 9.31 µM"
COc1ccc(CN2C(=O)c3ccccc3C(/C=N\OCc3ccc(F)cc3)C2=O)cc1 (configuration not stated),–,> 7.63 µM,"IC50 (FFLUC_HILL_SLOPE 3.53, FFLUC_R_SQUARED 0.589, read-out: LUCIFERASE INFECTION ASSAY - IC50): > 7.63 µM"
Cc1c(-c2ccccc2)oc2c(C(=O)Nc3ccc(N4CCOCC4)c4ccncc34)cccc2c1=O,–,> 10 µM,"IC50 (PBLUC_HILL_SLOPE 15.7, PBLUC_R_SQUARED 0.205, read-out: LUCIFERASE INFECTION ASSAY - IC50): 9.81 µM"
Cc1ccc(-c2c(C)nn3c(=O)cc(C)[nH]c23)cc1,–,12.5 µM,"IC50 (HEPG2TOX_HILL_SLOPE 4.15, HEPG2TOX_R_SQUARED 0.53, PBLUC_HILL_SLOPE 4.03, PBLUC_R_SQUARED 0.493, read-out: LUCIFERASE INFECTION ASSAY - IC50): 7.24 µM"
CCOc1cc(C2NCC(c3ccccc3)c3c2[nH]c2ccccc32)ccc1OCC(C)C (configuration not stated),–,> 10 µM,"IC50 (PBLUC_HILL_SLOPE 4.52, PBLUC_R_SQUARED 0.531, read-out: LUCIFERASE INFECTION ASSAY - IC50): 6.16 µM"
Cc1c(C)c(C)c(S(=O)(=O)Nc2ccc3c[nH]nc3c2)c(C)c1C,–,> 10 µM,"IC50 (HEPG2TOX_HILL_SLOPE 1.73, HEPG2TOX_R_SQUARED 0.711, PBLUC_HILL_SLOPE 1.55, PBLUC_R_SQUARED 0.469, read-out: LUCIFERASE INFECTION ASSAY - IC50): 4.27 µM"
O=[N+]([O-])c1cc(Cl)ccc1Oc1c(Cl)cccc1Cl,> 10.4 µM,> 10.4 µM,–
O=c1c2c(-c3ccccc3)csc2nc2c3ccccc3c(Cl)nn12,> 10 µM,> 10 µM,–
O=C(Nc1nc2ccccn2c1C(=O)NC1CCCCC1)c1ccccc1,–,3.28 µM,"IC50 (FFLUC_HILL_SLOPE 12.3, FFLUC_R_SQUARED 0.522, HEPG2TOX_HILL_SLOPE 1.9, HEPG2TOX_R_SQUARED 0.962, PBLUC_HILL_SLOPE 15.5, PBLUC_R_SQUARED 0.368, read-out: LUCIFERASE INFECTION ASSAY - IC50): 2.84 µM"
CCc1ccccc1Nc1nc(N)nc(CN2CCN(S(=O)(=O)Cc3ccccc3)CC2)n1,> 10 µM,> 10 µM,–
CCOc1ccc(N(C)S(=O)(=O)c2ccc(C)c(C(=O)Nc3nc4ccccc4[nH]3)c2)cc1,–,3.87 µM,"IC50 (PBLUC_HILL_SLOPE 2.47, PBLUC_R_SQUARED 0.24, read-out: LUCIFERASE INFECTION ASSAY - IC50): 1.59 µM"
CCCCCC1C/C(=C\c2ccc(C(F)(F)F)cc2)C(=O)/C(=C/c2ccc(C(F)(F)F)cc2)C1 (configuration not stated),–,> 6.87 µM,"IC50 (FFLUC_HILL_SLOPE 3.17, FFLUC_R_SQUARED 0.803, HEPG2TOX_HILL_SLOPE 11.8, HEPG2TOX_R_SQUARED 0.221, PBLUC_HILL_SLOPE 15.7, PBLUC_R_SQUARED 0.195, read-out: LUCIFERASE INFECTION ASSAY - IC50): 6.26 µM"
CC(c1ccccc1)n1c(SCCSc2cc(Cl)ccc2Cl)nc2ccccc2c1=O (configuration not stated),–,> 10 µM,"IC50 (PBLUC_HILL_SLOPE 4.25, PBLUC_R_SQUARED 0.473, read-out: LUCIFERASE INFECTION ASSAY - IC50): 6.21 µM"
Cc1cc(Cl)ccc1OCCCc1nc2ccc(Cl)cc2[nH]1,–,> 10 µM,"IC50 (PBLUC_HILL_SLOPE 2.8, PBLUC_R_SQUARED 0.541, read-out: LUCIFERASE INFECTION ASSAY - IC50): 7.39 µM"
O=c1c2ccccc2c(=O)c2oc3cc4oc5c(=O)c6ccccc6c(=O)c5[nH]c4cc3[nH]c12,–,4 µM,"IC50 (FFLUC_HILL_SLOPE 12.7, FFLUC_R_SQUARED 0.208, HEPG2TOX_HILL_SLOPE 4.53, HEPG2TOX_R_SQUARED 0.902, PBLUC_HILL_SLOPE 7.46, PBLUC_R_SQUARED 0.34, read-out: LUCIFERASE INFECTION ASSAY - IC50): 2.98 µM"
CN(CC(=O)Nc1cccc(F)c1)C(=O)c1csc(COc2ccc(Cl)cc2)n1,–,6.38 µM,"IC50 (HEPG2TOX_HILL_SLOPE 11.6, HEPG2TOX_R_SQUARED 0.266, PBLUC_HILL_SLOPE 151, PBLUC_R_SQUARED 0.192, read-out: LUCIFERASE INFECTION ASSAY - IC50): 6.29 µM"
O=C(Nc1ccc(Cl)cc1)Nc1nc(-c2cc(Cl)c(Cl)s2)cs1,1.13 µM,1.77 µM,–
Clc1cccc(Nc2ncc(-c3ccc4c(c3)OCCCO4)s2)c1,–,3.49 µM,"IC50 (PBLUC_HILL_SLOPE 0.775, PBLUC_R_SQUARED 0.83, read-out: LUCIFERASE INFECTION ASSAY - IC50): 0.205 µM"
O=[N+]([O-])c1cc(/C=C/c2nc3ccccc3s2)ccc1N1CCOCC1,–,> 10 µM,"IC50 (PBLUC_HILL_SLOPE 0.872, PBLUC_R_SQUARED 0.699, read-out: LUCIFERASE INFECTION ASSAY - IC50): 1.4 µM"
